Tested on: 5xFAD mice
Test: Radial arm maze test in 5xFAD model of Alzheimer's disease
Assay type: in vivo, mouse
Details: 20 mg/kg/day, 3 to 7 months of age
Description: FIG. 6. A, B and C: Chronic treatment with HPA acid or its prodrug, DHA-H, prevents cognitive decline typical of Alzheimer's disease in the murine transgenic model (5xFAD). Cognitive assessment was performed by the 8-arm Radial Labyrinth test. The animals received treatment between 3 and 7 months of age and the test was performed during the last month of treatment. During this test, the total errors made during the test (A), the reference memory errors (RME) (B) and the working memory errors (WME) (C) were taken into account. Each column represents the mean±SEM of errors during the last week of the radial labyrinth test. The black columns represent the errors made by WT mice. The blank columns represent the errors made by the 5xFAD transgenic mice treated with the vehicle (5% ethanol). Striped columns represent errors made by 5xFAD mice treated with DHA-H (20 mg/kg/day). Boxed columns represent errors made by 5xFAD mice treated with HPA (20 mg/kg/day). […] The bars represent the mean±standard error for each treatment condition and the statistical analysis was performed by unidirectional ANOVA and the Tukey multiple evaluation test: *p<0.05 when compared to healthy control (WT) and #p<0.05 when compared to 5xFAD control condition (treated with the vehicle). […]

CCC=CCC=CCC=CCC=CCC=CCC=CCC(O)C(=O)O (centres unmarked) [DHA-H, 2-hydroxy-drocosahexaenoic acid]
Cognition in 8-arm radial labyrinth test (total errors, RME, WME): cognitive improvement

CC/C=C\C/C=C\C/C=C\C/C=C\C/C=C\CCCCC(=O)O [HPA, (6Z,9Z,12Z,15Z,18Z)-heneicosa-6,9,12,15,18-pentaenoic acid]
Cognition in 8-arm radial labyrinth test (total errors, RME, WME): cognitive improvement
